Measurements reported in ChEMBL document CHEMBL3792360, “Antibacterial activity of Mannich bases derived from 2-naphthols, aromatic aldehydes and secondary aliphatic amines” (2016).
Converted amounts (≈) assume the structure as drawn.

How the values were obtained:
Type in all cases: functional
Escherichia coli [1] = assay: Antibacterial activity against Escherichia coli ATCC 35218 after 16 to 20 hrs by broth microdilution method
Escherichia coli [2] = assay: Antibacterial activity against Escherichia coli ATCC 25922 after 16 to 20 hrs by broth microdilution method
Enterococcus faecalis = assay: Antibacterial activity against Enterococcus faecalis ATCC 25912 after 16 to 20 hrs by broth microdilution method
Pseudomonas aeruginosa = assay: Antibacterial activity against Pseudomonas aeruginosa CIP 82118 after 16 to 20 hrs by broth microdilution method
Staphylococcus aureus [3] = assay: Antibacterial activity against Staphylococcus aureus […] after 16 to 20 hrs by broth microdilution method
Enterobacter cloacae = assay: Antibacterial activity against Enterobacter cloacae CIP 103475 after 16 to 20 hrs by broth microdilution method
Citrobacter freundii = assay: Antibacterial activity against Citrobacter freundii CIP 5732 after 16 to 20 hrs by broth microdilution method
Klebsiella pneumoniae = assay: Antibacterial activity against Klebsiella pneumoniae CIP 53153 after 16 to 20 hrs by broth microdilution method
Proteus vulgaris = assay: Antibacterial activity against Proteus vulgaris CIP 104989 after 16 to 20 hrs by broth microdilution method
Staphylococcus aureus [4] = assay: Antibacterial activity against methicillin-resistant Staphylococcus aureus ATCC 43300 after 16 to 20 hrs by broth microdilution method

Compound | MIC (Escherichia coli [1]) [µg/mL] | MIC (Escherichia coli [2]) [µg/mL] | MIC (Enterococcus faecalis) [µg/mL] | MIC (Pseudomonas aeruginosa) [µg/mL] | MIC (Staphylococcus aureus [3]) [µg/mL] | MIC (Enterobacter cloacae) [µg/mL] | MIC (Citrobacter freundii) [µg/mL] | MIC (Klebsiella pneumoniae) [µg/mL] | MIC (Proteus vulgaris) [µg/mL] | MIC (Staphylococcus aureus [4]) [µg/mL]
Oc1ccc2ccccc2c1C(c1ccc(Br)s1)N1CCCCC1 (stereo not given) | > 512 | > 512 | 16 (≈ 39.8 µM) | > 512 | 8 (≈ 19.9 µM) | > 512 | > 512 | > 512 | > 512 | 16 (≈ 39.8 µM)
Oc1ccc2cc(Br)ccc2c1C(c1ccccc1)N1CCCCC1 (stereo not given) | > 512 | > 512 | > 512 | > 512 | > 512 | > 512 | > 512 | > 512 | > 512 | > 512
Oc1ccc2ccccc2c1C(c1ccccc1)N1CCCCC1 (stereo not given) | > 512 | > 512 | > 512 | > 512 | 8 (≈ 25.2 µM) | > 512 | > 512 | > 512 | > 512 | > 512
COc1ccc2ccc(O)c(C(c3ccccc3)N3CCCCC3)c2c1 (stereo not given) | > 512 | > 512 | > 512 | > 512 | > 512 | > 512 | > 512 | > 512 | > 512 | > 512
COc1ccc2ccc(O)c(C(c3cccc4ccccc34)N3CCCCC3)c2c1 (stereo not given) | > 512 | > 512 | > 512 | > 512 | > 512 | > 512 | > 512 | > 512 | > 512 | > 512
Oc1ccc2ccccc2c1C(c1cccs1)N1CCCCC1 (stereo not given) | > 512 | > 512 | 32 (≈ 98.9 µM) | > 512 | 16 (≈ 49.5 µM) | > 512 | > 512 | > 512 | > 512 | 8 (≈ 24.7 µM)
COc1ccc2ccc(O)c(C(c3cccs3)N3CCCCC3)c2c1 (stereo not given) | > 512 | > 512 | 32 (≈ 90.5 µM) | > 512 | 16 (≈ 45.3 µM) | > 512 | > 512 | > 512 | > 512 | 16 (≈ 45.3 µM)
CC1CCN(C(c2cccc3ccccc23)c2c(O)ccc3ccccc23)CC1 (stereo not given) | > 512 | > 512 | > 512 | > 512 | > 512 | > 512 | > 512 | > 512 | > 512 | > 512
CN1CCN(C(c2cccs2)c2c(O)ccc3ccccc23)CC1 (stereo not given) | > 512 | > 512 | 32 (≈ 94.5 µM) | > 512 | 32 (≈ 94.5 µM) | > 512 | > 512 | > 512 | > 512 | 32 (≈ 94.5 µM)
CC1CCN(C(c2ccc(Br)s2)c2c(O)ccc3ccccc23)CC1 (stereo not given) | > 512 | > 512 | 16 (≈ 38.4 µM) | > 512 | 8 (≈ 19.2 µM) | > 512 | > 512 | > 512 | > 512 | 16 (≈ 38.4 µM)
CC1CCN(C(c2ccccc2)c2c(O)ccc3ccccc23)CC1 (stereo not given) | > 512 | > 512 | > 512 | > 512 | > 512 | > 512 | > 512 | > 512 | > 512 | > 512
Oc1ccc2ccccc2c1C(c1cccs1)N1CCOCC1 (stereo not given) | > 512 | > 512 | 32 (≈ 98.3 µM) | > 512 | 32 (≈ 98.3 µM) | > 512 | > 512 | > 512 | > 512 | 32 (≈ 98.3 µM)
COc1ccc2ccc(O)c(C(c3cccc4ccccc34)N3CCC(C)CC3)c2c1 (stereo not given) | > 512 | > 512 | > 512 | > 512 | > 512 | > 512 | > 512 | > 512 | > 512 | > 512
COc1ccc2ccc(O)c(C(c3cccs3)N3CCC(C)CC3)c2c1 (stereo not given) | > 512 | > 512 | 64 (≈ 174 µM) | > 512 | 16 (≈ 43.5 µM) | > 512 | > 512 | > 512 | > 512 | 16 (≈ 43.5 µM)
CN(C)C(c1cccs1)c1c(O)ccc2ccccc12 (stereo not given) | > 512 | > 512 | 16 (≈ 56.5 µM) | > 512 | 16 (≈ 56.5 µM) | > 512 | > 512 | > 512 | 128 (≈ 452 µM) | 16 (≈ 56.5 µM)
Cc1cc(C)cc(C(c2c(O)ccc3ccccc23)N2CCCCC2)c1 (stereo not given) | > 512 | > 512 | > 512 | > 512 | 4 (≈ 11.6 µM) | > 512 | > 512 | > 512 | > 512 | > 512
Oc1ccc2cc(Br)ccc2c1C(c1cccc2ccccc12)N1CCCCC1 (stereo not given) | > 512 | > 512 | > 512 | > 512 | > 512 | > 512 | > 512 | > 512 | > 512 | > 512
Oc1ccc2ccccc2c1C(c1cccs1)N1CCN(c2ccccc2)CC1 (stereo not given) | > 512 | > 512 | > 512 | > 512 | 64 (≈ 160 µM) | > 512 | > 512 | > 512 | > 512 | 16 (≈ 39.9 µM)
Oc1ccc2ccccc2c1C(c1cccs1)N1CCCC1 (stereo not given) | > 512 | > 512 | 32 (≈ 103 µM) | > 512 | 32 (≈ 103 µM) | > 512 | > 512 | > 512 | > 512 | 32 (≈ 103 µM)
COc1ccc2ccc(O)c(C(c3ccccn3)N3CCC(C)CC3)c2c1 (stereo not given) | > 512 | > 512 | > 512 | > 512 | > 512 | > 512 | > 512 | > 512 | > 512 | > 512
Oc1ccc2cc(Br)ccc2c1C(c1cccs1)N1CCCCC1 (stereo not given) | > 512 | > 512 | 16 (≈ 39.8 µM) | > 512 | 8 (≈ 19.9 µM) | > 512 | > 512 | > 512 | > 512 | 8 (≈ 19.9 µM)
Oc1ccc2ccccc2c1C(c1ccc(F)cc1)N1CCCCC1 (stereo not given) | > 512 | > 512 | > 512 | > 512 | 8 (≈ 23.9 µM) | > 512 | > 512 | > 512 | > 512 | > 512
